Assay results: patent publication US7732449B2, “Inhibitors of cathepsin S” (IRM LLC, priority 2003, dated 2010)
Read-outs that look alike come from different tables or passages of the source.

Key:
Type in all cases: biochemical
Cathepsin B = Cathepsin B (Homo sapiens, UniProt P07858); test: Cathepsin B inhibition, fluorogenic peptide substrate kinetic assay (selectivity); details: ratio of cathepsin B inhibition constant to cathepsin S inhibition constant;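 also: value is the cathepsin B inhibition constant divided by the cathepsin S one, each from kinetic fluorescence readings (ex 380 nm, em 450 nm) of a 10 µM coumarin peptide substrate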
Cathepsin S = Cathepsin S (Homo sapiens, UniProt P25774); test: Cathepsin S inhibition, fluorogenic peptide substrate kinetic assay;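 also: cleavage rate of a coumarin-labelled peptide substrate (50 µM) read as fluorescence increase at Ex 380 nm and Em 450 nm, relative to inhibitor-free control reactions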
Sequence of Cathepsin S (P25774 115-331, species assumed): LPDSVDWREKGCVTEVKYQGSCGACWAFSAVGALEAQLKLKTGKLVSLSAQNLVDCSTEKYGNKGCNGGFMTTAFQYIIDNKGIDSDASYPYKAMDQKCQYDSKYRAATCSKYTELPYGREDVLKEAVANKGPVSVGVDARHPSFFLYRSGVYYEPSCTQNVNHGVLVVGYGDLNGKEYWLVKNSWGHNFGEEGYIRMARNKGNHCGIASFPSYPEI

Cathepsin L = Cathepsin L (Homo sapiens, UniProt P07711); test: Cathepsin L inhibition, fluorogenic peptide substrate kinetic assay (selectivity); details: ratio of cathepsin L inhibition constant to cathepsin S inhibition constant
Sequence of Cathepsin L (P07711 114-333, species assumed): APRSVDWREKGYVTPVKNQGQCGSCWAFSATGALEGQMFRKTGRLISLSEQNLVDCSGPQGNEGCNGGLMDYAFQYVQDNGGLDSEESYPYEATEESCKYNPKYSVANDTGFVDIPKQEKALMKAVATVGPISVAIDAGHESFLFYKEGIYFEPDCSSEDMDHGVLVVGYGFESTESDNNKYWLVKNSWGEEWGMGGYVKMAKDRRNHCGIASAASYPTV

Cathepsin K = biological target: T1, Cathepsin K (Homo sapiens, UniProt P43235); test: Cathepsin K inhibition, fluorogenic peptide substrate kinetic assay (selectivity); details: ratio of cathepsin K inhibition constant to cathepsin S inhibition constant
T1 sequence (P43235 115-329): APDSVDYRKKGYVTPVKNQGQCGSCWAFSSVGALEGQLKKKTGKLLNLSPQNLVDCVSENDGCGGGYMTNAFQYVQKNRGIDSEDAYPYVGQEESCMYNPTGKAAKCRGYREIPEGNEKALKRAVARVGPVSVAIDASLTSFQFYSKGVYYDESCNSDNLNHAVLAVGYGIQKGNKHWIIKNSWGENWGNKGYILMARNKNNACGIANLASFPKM

[1] = Cathepsin S inhibition constant, pH5.5, 20 minutes preincubation at room temperature, read-out: Ki Cat. S

Structure (SMILES)	Selectivity for Cat. S over Cat. B (Cathepsin B)	Ki (Cathepsin S; [1])	Selectivity for Cat. S over Cat. L (Cathepsin L)	Ki (Cathepsin S)	Selectivity for Cat. S over Cat. K (Cathepsin K)
CC(C)[C@@H](CN1CC(C)(C)c2cc(F)ccc21)NC(=O)OC(C(=O)N1CCOCC1)c1ccccc1 (mixture of isomers) [Example 109, [1-(S)-(5-Fluoro-3,3-dimethyl-2,3-dihydro-indol-1-ylmethyl)-2-methyl-propyl]-carbamic acid 2-morpholin-4-yl-2-oxo-1-(R,S)-phenyl-ethyl ester]	+ (+, >10)	1000 to 10000 nM	+ (+, >10)	–	–
O=C(NCCN1CCc2cc(F)ccc21)[C@H](CC1CCCCC1)OC(=O)N1CCOCC1 [Example 1, Morpholine-4-carboxylic acid (S)-2-cyclohexyl-1-[2-(5-fluoro-2,3-dihydro-indol-1-yl)-ethylcarbamoyl]-ethyl ester]	+ (+, >10)	1000 to 10000 nM	–	–	–
C[C@@H](CNc1ccc(OC(F)(F)F)cc1)NC(=O)[C@H](CSCc1ccccc1)NC(=O)N1CCOCC1 [Example 17, Morpholine-4-carboxylic acid {2-benzylsulfanyl-1-(R)-[1-(S)-methyl-2-(4-trifluoromethoxy-phenylamino)-ethylcarbamoyl]-ethyl}-amide]	–	< 100 nM	–	–	–
O=C(N[C@@H](CCc1ccccc1)CNc1ccc(OC(F)(F)F)cc1)[C@@H](CC(=O)N1CCOCC1)CC1CCCCC1 [Example 23, 2-(R)-Cyclohexylmethyl-4-morpholin-4-yl-4-oxo-N-{3-phenyl-1-(S)-[(4-trifluoromethoxy-phenylamino)-methyl]-propyl}-butyramide]	++ (++, >100)	–	–	< 100 nM	+ (+, >10)
CC(C)[C@@H](CNc1ccc(OC(F)(F)F)cc1)NC(=O)[C@@H](CC(=O)N1CCOCC1)CC1CCCCC1 [Example 24, 2-(R)-Cyclohexylmethyl-N-{2-methyl-1-(S)-[(4-trifluoromethoxy-phenylamino)-methyl]-propyl}-4-morpholin-4-yl-4-oxo-butyramide]	–	–	–	< 100 nM	–
C[C@@H](CNc1ccc(OC(F)(F)F)cc1)NC(=O)[C@@H](CC(=O)N1CCOCC1)CC(C)(C)C [Example 26, 4,4-Dimethyl-2-(R)-(2-morpholin-4-yl-2-oxo-ethyl)-pentanoic acid [1-(S)-methyl-2-(4-trifluoromethoxy-phenylamino)-ethyl]-amide]	++ (++, >100)	–	++ (++, >100)	100 to 1000 nM	–
CS(=O)(=O)CC[C@@H](CNc1ccc(OC(F)(F)F)cc1)NC(=O)[C@@H](CC(=O)N1CCOCC1)CC1CCCCC1 [Example 28, 2-(R)-Cyclohexylmethyl-N-{3-methanesulfonyl-1-(S)-[(4-trifluoromethoxy-phenylamino)-methyl]-propyl}-4-morpholin-4-yl-4-oxo-butyramide]	–	–	–	< 100 nM	–
CS(=O)(=O)CC[C@H](CNc1ccc(OC(F)(F)F)cc1)NC(=O)[C@@H](CC(=O)N1CCOCC1)CC1CCCCC1 [Example 29, 2-(R)-Cyclohexylmethyl-N-{3-methanesulfonyl-1-(R)-[(4-trifluoromethoxy-phenylamino)-methyl]-propyl}-4-morpholin-4-yl-4-oxo-butyramide]	–	–	–	< 100 nM	–
CC(C)[C@@H](CNc1ccc(OC(F)(F)F)cc1)NC(=O)[C@H](CCCc1ccccc1)CC(=O)N1CCOCC1 [Example 30, 2-(R)-(2-Morpholin-4-yl-2-oxo-ethyl)-5-phenyl-pentanoic acid {2-methyl-1-(S)-[(4-trifluoromethoxy-phenylamino)-methyl]-propyl}-amide]	–	–	–	< 100 nM	–
CC(C)[C@@H](CNc1ccc(OC(F)(F)F)cc1)NC(=O)[C@@H](CC(=O)N1CCOCC1)CC1CCCC1 [Example 31, 2-(R)-Cyclopentylmethyl-N-{2-methyl-1-(S)-[(4-trifluoromethoxy-phenylamino)-methyl]-propyl}-4-morpholin-4-yl-4-oxo-butyramide]	–	–	–	< 100 nM	–
CC(C)[C@@H](CNc1ccc(OC(F)(F)F)cc1)NC(=O)[C@H](CCc1ccccc1)CC(=O)N1CCOCC1 [Example 32, N-{2-Methyl-1-(S)-[(4-trifluoromethoxy-phenylamino)-methyl]-propyl}-4-morpholin-4-yl-4-oxo-2-(R)-phenethyl-butyramide]	+++ (+++, >1000)	–	+ (+, >10)	< 100 nM	–
CC(C)[C@@H](CNc1ccc(OC(F)(F)F)cc1)NC(=O)[C@H](CCC1CCCC1)CC(=O)N1CCOCC1 [Example 33, 2-(R)-(2-Cyclopentyl-ethyl)-N-{2-methyl-1-(S)-[(4-trifluoromethoxy-phenylamino)-methyl]-propyl}-4-morpholin-4-yl-4-oxo-butyramide]	–	–	–	< 100 nM	–
CC[C@@H](CNc1ccc(OC(F)(F)F)cc1)NC(=O)[C@H](CCc1ccccc1)CC(=O)N1CCOCC1 [Example 38, 4-Morpholin-4-yl-4-oxo-2-(R)-phenethyl-N-{1-(S)-[(4-trifluoromethoxy-phenylamino)-methyl]-propyl}-butyramide]	+++ (+++, >1000)	–	–	< 100 nM	–
O=C(N[C@@H](CCc1ccccc1)CNc1ccc(OC(F)(F)F)cc1)[C@@H](CC(=O)N1CCOCC1)c1ccccc1 [Example 40, 4-Morpholin-4-yl-4-oxo-2-(S)-phenyl-N-{3-phenyl-1-(S)-[(4-trifluoromethoxy-phenylamino)-methyl]-propyl}-butyramide]	–	–	–	< 100 nM	–
O=C(N[C@H](CNc1ccc(OC(F)(F)F)cc1)c1ccccc1)[C@@H](CC(=O)N1CCOCC1)c1ccccc1 [Example 44, 4-Morpholin-4-yl-4-oxo-2-(S)-phenyl-N-[1-(S)-phenyl-2-(4-trifluoromethoxy-phenylamino)-ethyl]-butyramide]	–	–	–	100 to 1000 nM	–
C[C@@H]1CN(C(=O)C[C@@H](CC2CCCCC2)C(=O)N[C@@H](C)CNc2ccc(OC(F)(F)F)cc2)C[C@H](C)O1 [Example 50, 2-(R)-Cyclohexylmethyl-4-(cis-2,6-dimethyl-morpholin-4-yl)-N-[1-(S)-methyl-2-(4-trifluoromethoxy-phenylamino)-ethyl]-4-oxo-butyramide]	+++ (+++, >1000)	< 100 nM	–	–	++ (++, >100)
C[C@@H](CN1CC(C)(C)c2cc(F)ccc21)NC(=O)[C@@H](CC(=O)N1CCOCC1)c1ccc(C(F)(F)F)cc1 [Example 66, N-[2-(5-Fluoro-3,3-dimethyl-2,3-dihydro-indol-1-yl)-1-(S)-methyl-ethyl]-4-morpholin-4-yl-4-oxo-2-(S)-(4-trifluoromethyl-phenyl)-butyramide]	+ (+, >10)	1000 to 10000 nM	–	–	–
CS(=O)(=O)CC[C@@H](CNc1ccc(OC(F)(F)F)cc1)NC(=O)[C@H](CC1CCCCC1)NC(=O)N1CCOCC1 [Example 74, Morpholine-4-carboxylic acid (2-cyclohexyl-1-(S)-{3-methanesulfonyl-1-(S)-[(4-trifluoromethoxy-phenylamino)-methyl]-propylcarbamoyl}-ethyl)-amide]	+ (+, >10)	< 100 nM	–	–	+ (+, >10)
CC[C@@H](CNc1ccc(OC(F)(F)F)cc1)NC(=O)[C@H](CC1CCCCC1)NC(=O)N1CCOCC1 [Example 75, Morpholine-4-carboxylic acid (2-cyclohexyl-1(S)-{1-(S)-[(4-trifluoromethoxy-phenylamino)-methyl]-propylcarbamoyl}-ethyl)-amide]	+ (+, >10)	< 100 nM	–	–	+ (+, >10)
CC(C)[C@@H](CNc1cccnc1)NC(=O)[C@H](CC1CCCCC1)NC(=O)N1CCOCC1 [Example 76, Morpholine-4-carboxylic acid {2-cyclohexyl-1-(S)-[2-methyl-1-(S)-(pyridin-3-ylaminomethyl)-propylcarbamoyl]-ethyl}-amide]	+ (+, >10)	100 to 1000 nM	–	–	+ (+, >10)
C[C@@H](CNc1nc2ccccc2s1)NC(=O)[C@H](CC1CCCCC1)NC(=O)N1CCOCC1 [Example 78, Morpholine-4-carboxylic acid {1-(S)-[2-(benzothiazol-2-ylamino)-1-(S)-methyl-ethylcarbamoyl]-2-cyclohexyl-ethyl}-amide]	+ (+, >10)	1000 to 10000 nM	–	–	+ (+, >10)
C[C@@H](CNc1nc2ccccc2o1)NC(=O)[C@H](CC1CCCCC1)NC(=O)N1CCOCC1 [Example 79, Morpholine-4-carboxylic acid {1-(S)-[2-(benzooxazol-2-ylamino)-1-(S)-methyl-ethylcarbamoyl]-2-cyclohexyl-ethyl}-amide]	+ (+, >10)	1000 to 10000 nM	–	–	+ (+, >10)
O=C(N[C@H](CN1CC2(CC2)c2cc(F)ccc21)C1CC1)[C@H](CC1CCCCC1)NC(=O)N1CCOCC1 [Example 82, Morpholine-4-carboxylic acid {2-cyclohexyl-1-(S)-[1-(S)-cyclopropyl-2-(5-fluoro-3,3-spirocyclopropyl-2,3-dihydro-indol-1-yl)-ethylcarbamoyl]-ethyl}-amide]	++ (++, >100)	< 100 nM	–	–	++ (++, >100)
C[C@@H]1CN(C(=O)[C@H](CC2CCCCC2)OC(=O)N[C@@H](C)CN2c3ccc(F)cc3CC2(C)C)C[C@H](C)O1 [Example 93, [2-(5-Fluoro-2,2-dimethyl-2,3-dihydro-indol-1-yl)-1-(S)-methyl-ethyl]-carbamic acid 1-(S)-cyclohexylmethyl-2-(2,6-cis-dimethyl-morpholin-4-yl)-2-oxo-ethyl ester]	+ (+, >10)	1000 to 10000 nM	–	–	+ (+, >10)
